Columns and labels:
[1] = biological target: T1, GST-hLGK1 (human liver type GK) (Homo sapiens, UniProt P35557); assay: Determination of GK activity value (Mant-ATP conversion, capillary electrophoresis); format: biochemical; settings: concentration necessary for activating 50% of the maximum GK activity value, 37° C., 60 min, D-glucose added
T1 construct: with a BamHI site added to immediately before the initiation codon; made in house; host or cells: Escherichia coli BL21
T1 sequence (P35557 1-464 isoform P35557-3): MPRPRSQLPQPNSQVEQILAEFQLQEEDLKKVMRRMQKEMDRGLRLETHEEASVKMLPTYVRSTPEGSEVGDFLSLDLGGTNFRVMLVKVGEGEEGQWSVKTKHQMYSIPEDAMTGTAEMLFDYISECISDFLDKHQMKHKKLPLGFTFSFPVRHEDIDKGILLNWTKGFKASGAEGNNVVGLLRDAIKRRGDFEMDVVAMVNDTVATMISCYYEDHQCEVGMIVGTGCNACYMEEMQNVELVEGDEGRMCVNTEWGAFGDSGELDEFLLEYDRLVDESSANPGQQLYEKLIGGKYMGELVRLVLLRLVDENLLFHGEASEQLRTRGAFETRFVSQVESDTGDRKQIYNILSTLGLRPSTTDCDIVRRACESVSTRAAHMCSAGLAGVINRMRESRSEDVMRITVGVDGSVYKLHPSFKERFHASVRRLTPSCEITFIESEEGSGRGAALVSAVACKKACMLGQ
Method: A solution (5 μL) of test compound in 50% dimethyl sulfoxide was added to each well of 384 well black plate (Nalge Nunc International K.K.). Then, a solution (35 μL) obtained by diluting GST-hLGK1 obtained in Reference Example 2A with measurement buffer (containing 50 mM HEPES (pH 7.4), 200 mM KCl, 5 mM MgCl2, 2.5 mM DTT and 50 μM 2′-(or -3′)-O—(N-methylanthraniloyl)adenosine 5′-triphosphate (Mant-ATP) (Jena Bioscience GmbH)) to 6 μg/mL was added to each well.
Each well was stood at 37° C. for 10 min, and 25 mM D-glucose solution (10 μL) was added to start the reaction.
Each well after the reaction was stood at 37° C. for 60 min, and the reaction was quenched by adding 25 μL of a quenching solution (containing 200 mM HEPES (pH 7.4), 20 mM MgCl2, 200 mM EDTA, 0.03% Triton-X 100, 0.3% Coating 3 reagent (Caliper Life Sciences, Inc.)).
Mant-ATP (substrate) and Mant-ADP (reaction resultant product) were separated from each well after the reaction by a microchip type capillary electrophoresis apparatus 250 HTS (Caliper Life Sciences, Inc.). The reaction rate [(reaction resultant product peak height)/(reaction resultant product peak height+substrate peak height)×100(%)] was calculated from the ratio of the substrate peak height and reaction resultant product peak height obtained by fluorescence detection (excitation wavelength 355 nm, measurement wavelength 460 nm) and used as the index of GK activity.
As a control group, the reaction rate was calculated in the same manner as above except that “solution in 50% dimethyl sulfoxide” was used instead of “solution of test compound in 50% dimethyl sulfoxide”.
The percentage obtained by dividing the reaction rate of the well added with the test compound (test compound addition group) by the reaction rate of the well added with 50% solution in dimethyl sulfoxide alone (control group) was taken as the GK activity value of the test compound, and the concentration of the test compound necessary for activating 50% of the maximum value of the activity value is shown as EC50 value.

EC50 [1]: 29 nM
melting point: 197 to 198 °C
SMILES: CN(c1ccc(F)c2cc(-c3nccs3)[nH]c12)S(=O)(=O)c1cccs1 [Example 182, N-[4-fluoro-2-(1,3-thiazol-2-yl)-1H-indol-7-yl]-N-methylthiophene-2-sulfonamide]
